Reference: US8569264B2, “Antibacterial 4,5-substituted aminoglycoside analogs having multiple substituents” (ISIS Pharmaceuticals, Inc., priority 2005, dated 2013)
pIC50, pKd: −log10 of the molar value. ≈ marks a conversion by molar mass, not a printed value. Where two headings read alike, the source gives them in different places.

Key:
[1] = biological target: 18S ribosomal subunit RNA target; test: Mass spectrometry based binding assay (FTICR), 18S
How it was run: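 Ligands at varying concentrations were mixed with 2.5 or 5 μM RNA in 100 mM ammonium acetate with 33% isopropyl alcohol, then analysed by negative-mode ESI-FTICR. Complex/free RNA ion ratios plotted against ligand concentration were fitted to a second- or higher-order binding polynomial to give KD.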

[2] = biological target: 16S ribosomal subunit RNA target; test: Mass spectrometry based binding assay (FTICR), 16S
How it was run: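 Binding to the 16S ribosomal subunit RNA target was measured by FTICR mass spectrometry. Ligands or ligand mixtures were prepared at several concentrations in 10 μL of aqueous 100 mM ammonium acetate buffer with 33% isopropyl alcohol. Samples were infused at 1 μL/min into a negative-mode electrospray source, and ions were held 1 sec in an RF-only hexapole. Complex/free RNA ratios versus ligand concentration were fitted to a binding polynomial to obtain KD.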

[3] = system: E. coli S30 bacterial extract (pBestLuc firefly luciferase reporter); test: Coupled bacterial transcription/translation assay; assay type: biochemical; details: read-out: Trans/Trans IC50
How it was run: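 Coupled transcription/translation of firefly luciferase from 1 μg pBestLuc (tac promoter) in E. coli S30 extract, with or without test compound. Reaction 35 min at 37° C., then functional luciferase detected by luminescence.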

E. Coli = test: MIC, E. Coli; assay type: cell-based
How it was run: (§1)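 Broth microdilution in duplicate, 150 μL: overnight-culture bacteria were added to compound in 4% DMSO in water. Final inoculum was about 10^5–10^6 CFU/well.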

S. Aureus = test: MIC, S. Aureus; assay type: cell-based
How it was run: as §1

E. coli ATCC 25922 = test: MIC, E. coli ATCC 25922; assay type: cell-based
Procedure: (§2) The MIC assays are carried out in 150 μL volume in duplicate in 96-well clear flat-bottom plates. The bacterial suspension from an overnight culture growth in appropriate medium is added to a solution of test compound in 4% DMSO in water. Final bacterial inoculum is approximately 10^5-10^6 CFU/well. […] Both ampicillin and tetracycline are used as antibiotic-positive controls in each screening assay for S. pyogenes, E. coli imp-, E. coli, S. aureus, E. faecalis, K. pneumoniae and P. vulgaris. Ciprofloxacin is used as an antibiotic positive control in each screening assay for P. aeruginosa.
(§3) The following compounds were prepared using methods illustrated in the previous examples. The compounds were also examined in standard bacterial assays against E. Coli, S. Aureus, P. aurginosa, K. pneumoniae, P. vulgaris, and A. baumannii to determine activities. Each of the bacterial cultures that are available from ATCC (www.atcc.org) is identified by its ATCC number. A. baumannii is gentamicin sensitive Acinetobacter baumannii #2 from Walter Reed.

S. aureus ATCC 13709 = test: MIC, S. aureus ATCC 13709; assay type: cell-based
Procedure: as §2, §3

P. aurginosa ATCC 25416 = test: MIC, P. aurginosa ATCC 25416; assay type: cell-based
Procedure: as §2, §3

P. aurginosa ATCC 29248 = test: MIC, P. aurginosa ATCC 29248; assay type: cell-based
Procedure: as §2, §3

K. pneumoniae ATCC 10031 = test: MIC, K. pneumoniae ATCC 10031; assay type: cell-based
Procedure: as §2, §3

P. vulgaris ATCC 8427 = test: MIC, P. vulgaris ATCC 8427; assay type: cell-based
Procedure: as §2, §3

[4] = system: gentamicin sensitive Acinetobacter baumannii #2 from Walter Reed; test: MIC, A. baumannii WReed 2; assay type: cell-based
Procedure: as §2, §3

[5] = system: Staphylococcus aureus (Smith Strain ATCC 13709); test: Staphylococcus aureus mouse protection assay; assay type: in vivo, mice; details: Staph Conc. 10^6, 10% Mucin, the 13th table

NCC1OC(OC2C(CO)OC(OC3C(O)C(N)CC(N)C3OC3OC(CNCCc4ccccc4)C(O)C(O)C3N)C2O)C(N)C(O)C1O (stereo not drawn) [Compound 15j]
pKd ([1]; Example 108): 5.66 | pKd ([2]; Example 108): 6.30 | pIC50 ([3]; Example 108): 6.70 | MIC E. Coli. (E. Coli; Example 108): 1.3 to 2.5 µM | MIC S. Aureus (S. Aureus; Example 108): 0.3 to 0.6 µM | MIC E. coli ATCC 25922 (E. coli ATCC 25922; Example 110): 1.3 to 2.5 µM | MIC E. coli ATCC 25922 (E. coli ATCC 25922; Example 111): 1.3 to 2.5 µM | MIC S. aureus ATCC 13709 (S. aureus ATCC 13709; Example 110): 10 to 20 µM | MIC S. aureus ATCC 13709 (S. aureus ATCC 13709; Example 111): 0.3 to 0.6 µM | MIC P. aurginosa ATCC 25416 (P. aurginosa ATCC 25416; Example 110): >40 µM | MIC P. aurginosa ATCC 25416 (P. aurginosa ATCC 25416; Example 111): >40 µM | MIC P. aurginosa ATCC 29248 (P. aurginosa ATCC 29248; Example 110): >40 µM | MIC P. aurginosa ATCC 29248 (P. aurginosa ATCC 29248; Example 111): >40 µM | MIC K. pneumoniae ATCC 10031 (K. pneumoniae ATCC 10031; Example 110): <0.6 µM | MIC K. pneumoniae ATCC 10031 (K. pneumoniae ATCC 10031; Example 111): 0.6 to 1.3 µM | MIC P. vulgaris ATCC 8427 (P. vulgaris ATCC 8427; Example 110): 1.3 to 2.5 µM | MIC P. vulgaris ATCC 8427 (P. vulgaris ATCC 8427; Example 111): >40 µM | MIC A. baumannii WReed 2 ([4]; Example 110): 1.3 to 2.5 µM | MIC A. baumannii WReed 2 ([4]; Example 111): 20 to 40 µM | # Dead mice/Total mice in group ([5]; 0.5 mg/kg subcutaneously): 7/10 | # Dead mice/Total mice in group ([5]; 1 mg/kg subcutaneously): 0/10 | # Dead mice/Total mice in group ([5]; 2 mg/kg subcutaneously): 0/10 | # Dead mice/Total mice in group ([5]; 4.5 mg/kg subcutaneously): 0/10 | # Dead mice/Total mice in group ([5]; 9 mg/kg subcutaneously): 0/10 | # Dead mice/Total mice in group ([5]; 18 mg/kg subcutaneously): 0/10 | # Dead mice/Total mice in group ([5]; 37 mg/kg subcutaneously): 0/10 | # Dead mice/Total mice in group ([5]; 75 mg/kg subcutaneously one and 3 hour after infection, intraperitoneal): 0/10

NC[C@@H]1O[C@H](O[C@H]2[C@@H](O)[C@H](O[C@@H]3[C@@H](O)[C@H](N)C[C@H](N)[C@H]3O[C@H]3O[C@H](CO)[C@@H](O)[C@H](O)[C@H]3N)O[C@@H]2CO)[C@H](N)[C@@H](O)[C@@H]1O [paromomycin, reference compound]
pKd ([1]; Example 106): 5.32 | pKd ([2]; Example 106): 6.22 | pIC50 ([3]; Example 106): 7.00 | MIC (E. Coli; Escherichia coli, Example 106): 20 to 40 µM (≈ 12.3 to 24.6 µg/mL) | MIC (S. Aureus; Staphylococcus aureus, Example 106): 3 to 5 µM (≈ 1.85 to 3.08 µg/mL) | MIC (E. coli ATCC 25922; Escherichia coli, ATCC25922, Example 111): 5 to 10 µM (≈ 3.08 to 6.16 µg/mL) | MIC (S. aureus ATCC 13709; Staphylococcus aureus, ATCC13709, Example 111): 10 to 20 µM (≈ 6.16 to 12.3 µg/mL) | MIC (P. aurginosa ATCC 25416; Example 111): > 40 µM | MIC (P. aurginosa ATCC 29248; Example 111): > 40 µM | MIC (K. pneumoniae ATCC 10031; Klebsiella pneumoniae, ATCC10031, Example 111): 0.6 to 1.3 µM (≈ 0.369 to 0.8 µg/mL) | MIC (P. vulgaris ATCC 8427; Proteus vulgaris, ATCC8427, Example 111): > 40 µM | MIC ([4]; Acinetobacter baumannii, Example 111): 2.5 to 5 µM (≈ 1.54 to 3.08 µg/mL) | # Dead mice/Total mice in group ([5]; 0.5 mg/kg subcutaneously): 10/10 | # Dead mice/Total mice in group ([5]; 1 mg/kg subcutaneously): 10/10 | # Dead mice/Total mice in group ([5]; 2 mg/kg subcutaneously): 9/10
